Values after ≈ are worked out from the molar mass of the structure shown. Like-named read-outs stand apart in the source and are kept apart here.
Tests used:
male beagles = assay: adverse events in dog PK; assay type: in vivo; settings: 0.5 mg/kg IV
Protocol: (§1) Deeper profiling began with IV dog PK (0.5 mg/kg, n = 3 male beagles). […] Was this a mechanism-based toxicity in dog? Could there be dog-specific pharmacology of mGlu1 activation? Were these AEs derived from the 19d chemotype? Could a mGlu1/mGlu5 heterodimer be responsible for the observed AEs? […] In an attempt to address the chemotype question, we evaluated PAM 4 (VU6004909),[8] an early generation rodent in vivo tool compound, for the first time in dog PK. […] of the study with 19d, PAM 4 produced no AEs in dog. […] Therefore, more molecular pharmacology and PK studies as well as additional chemically distinct mGlu1 PAM chemotypes are required to understand the AEs elicited by an mGlu1 PAM in dogs, an otherwise very promising target for the treatment of schizophrenia.

CCK1 (CCKA) = molecular target: T1, CCK1 (CCKA) (Homo sapiens, UniProt P32238); assay: Eurofins radioligand binding panel; settings: agonist radioligand
T1 construct: Eurofins (panel run as a service)
T1 sequence (P32238 whole entry): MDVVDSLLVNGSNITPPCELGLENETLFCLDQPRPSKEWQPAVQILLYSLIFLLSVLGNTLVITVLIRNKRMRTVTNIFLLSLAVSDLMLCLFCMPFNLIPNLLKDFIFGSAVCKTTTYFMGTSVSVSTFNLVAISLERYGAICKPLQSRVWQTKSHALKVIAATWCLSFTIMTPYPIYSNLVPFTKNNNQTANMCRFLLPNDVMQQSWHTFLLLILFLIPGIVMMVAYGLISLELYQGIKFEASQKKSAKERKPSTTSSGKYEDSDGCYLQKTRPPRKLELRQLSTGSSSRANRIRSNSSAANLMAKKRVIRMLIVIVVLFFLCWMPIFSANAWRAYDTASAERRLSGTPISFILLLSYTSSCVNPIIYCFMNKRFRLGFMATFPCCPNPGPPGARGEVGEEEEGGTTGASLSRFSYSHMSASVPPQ
Source text: (§2) Table S1. Eurofins Lead Profiling Screen Data
(§3) This is a radioligand binding panel of 80 targets including GPCRs, ion channels, transporters and nuclear hormones. Biochemical assay results are presented as the percent inhibition of specific […]
(§4) Results showing an inhibition or stimulation higher than 50% are considered to represent significant effect and are highlighted […]
(§5) Target / Protein Species % Inhibition at 10 […]

CGRP = molecular target: T2, CGRP (Homo sapiens, UniProt O60894+Q16602); assay: Eurofins radioligand binding panel; settings: agonist radioligand
T2 construct: Eurofins (panel run as a service)
T2 sequence (Q16602 23-461): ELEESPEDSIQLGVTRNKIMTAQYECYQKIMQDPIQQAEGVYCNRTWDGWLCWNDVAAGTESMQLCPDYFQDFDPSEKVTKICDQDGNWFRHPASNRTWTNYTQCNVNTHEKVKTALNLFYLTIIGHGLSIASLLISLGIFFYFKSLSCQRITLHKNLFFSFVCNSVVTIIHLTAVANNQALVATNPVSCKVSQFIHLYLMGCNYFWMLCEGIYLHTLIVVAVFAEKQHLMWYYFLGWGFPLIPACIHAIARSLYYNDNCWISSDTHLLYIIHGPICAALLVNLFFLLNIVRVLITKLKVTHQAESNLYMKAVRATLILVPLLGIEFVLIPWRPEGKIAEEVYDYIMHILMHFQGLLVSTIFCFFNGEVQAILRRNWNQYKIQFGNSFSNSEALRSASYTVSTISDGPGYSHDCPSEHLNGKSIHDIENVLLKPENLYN
T2 sequence (O60894 27-148 partner): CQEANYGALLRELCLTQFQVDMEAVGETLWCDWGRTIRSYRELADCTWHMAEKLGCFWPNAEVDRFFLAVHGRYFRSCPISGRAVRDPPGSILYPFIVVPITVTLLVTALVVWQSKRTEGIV
Source text: as §2, §3, §4, §5

B2 = molecular target: T3, B2 (Homo sapiens, UniProt P30411); assay: Eurofins radioligand binding panel; settings: agonist radioligand
T3 construct: Eurofins (panel run as a service)
T3 sequence (P30411 whole entry): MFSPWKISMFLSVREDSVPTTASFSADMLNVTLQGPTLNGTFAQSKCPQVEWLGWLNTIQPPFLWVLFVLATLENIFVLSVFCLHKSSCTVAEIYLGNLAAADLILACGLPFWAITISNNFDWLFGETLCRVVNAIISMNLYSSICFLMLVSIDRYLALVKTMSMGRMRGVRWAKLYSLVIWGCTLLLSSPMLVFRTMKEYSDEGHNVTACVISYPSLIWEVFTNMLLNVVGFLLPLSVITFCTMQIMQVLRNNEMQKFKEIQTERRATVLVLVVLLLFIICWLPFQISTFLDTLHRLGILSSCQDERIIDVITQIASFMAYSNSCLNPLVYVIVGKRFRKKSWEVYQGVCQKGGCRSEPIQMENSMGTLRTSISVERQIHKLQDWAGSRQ
Source text: as §2, §3, §4, §5

CB1 = molecular target: T4, CB1 (Homo sapiens, UniProt P21554); assay: Eurofins radioligand binding panel; settings: agonist radioligand
T4 construct: Eurofins (panel run as a service)
T4 sequence (P21554 whole entry): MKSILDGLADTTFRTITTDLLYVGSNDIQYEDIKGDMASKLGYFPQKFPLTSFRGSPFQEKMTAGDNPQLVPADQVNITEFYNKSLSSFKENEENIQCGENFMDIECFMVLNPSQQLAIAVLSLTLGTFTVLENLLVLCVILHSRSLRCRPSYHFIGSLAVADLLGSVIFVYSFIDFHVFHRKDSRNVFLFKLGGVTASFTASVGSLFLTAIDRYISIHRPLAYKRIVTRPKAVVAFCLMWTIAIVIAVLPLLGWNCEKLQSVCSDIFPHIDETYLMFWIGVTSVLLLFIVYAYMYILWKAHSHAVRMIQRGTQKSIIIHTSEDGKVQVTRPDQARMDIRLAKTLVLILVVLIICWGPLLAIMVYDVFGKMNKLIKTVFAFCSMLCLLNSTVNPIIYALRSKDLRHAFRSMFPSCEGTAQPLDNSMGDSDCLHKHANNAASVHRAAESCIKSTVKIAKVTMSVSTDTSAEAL
Source text: as §2, §3, §4, §5

BZD (central) = assay: Eurofins radioligand binding panel; settings: agonist radioligand
Source text: as §2, §3, §4, §5

Adenosine A2A = molecular target: T5, Adenosine A2A (Homo sapiens, UniProt P29274); assay: Eurofins radioligand binding panel; settings: agonist radioligand
T5 construct: Eurofins
T5 sequence (P29274 whole entry): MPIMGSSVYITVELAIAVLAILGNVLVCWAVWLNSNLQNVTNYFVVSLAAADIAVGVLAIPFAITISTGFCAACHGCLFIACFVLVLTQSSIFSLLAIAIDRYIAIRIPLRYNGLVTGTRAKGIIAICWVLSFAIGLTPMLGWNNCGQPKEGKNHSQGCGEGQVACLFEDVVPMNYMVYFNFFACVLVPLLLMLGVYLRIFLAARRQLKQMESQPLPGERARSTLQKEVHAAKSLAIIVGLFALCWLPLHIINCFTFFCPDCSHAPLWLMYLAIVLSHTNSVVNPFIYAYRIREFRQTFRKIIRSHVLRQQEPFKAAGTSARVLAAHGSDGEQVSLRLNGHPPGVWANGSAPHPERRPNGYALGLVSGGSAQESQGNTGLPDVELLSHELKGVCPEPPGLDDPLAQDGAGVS
Source text: as §2, §3, §4, §5

AT2 = molecular target: T6, AT2 (Homo sapiens, UniProt P50052); assay: Eurofins radioligand binding panel; settings: agonist radioligand
T6 construct: Eurofins (panel run as a service)
T6 sequence (P50052 whole entry): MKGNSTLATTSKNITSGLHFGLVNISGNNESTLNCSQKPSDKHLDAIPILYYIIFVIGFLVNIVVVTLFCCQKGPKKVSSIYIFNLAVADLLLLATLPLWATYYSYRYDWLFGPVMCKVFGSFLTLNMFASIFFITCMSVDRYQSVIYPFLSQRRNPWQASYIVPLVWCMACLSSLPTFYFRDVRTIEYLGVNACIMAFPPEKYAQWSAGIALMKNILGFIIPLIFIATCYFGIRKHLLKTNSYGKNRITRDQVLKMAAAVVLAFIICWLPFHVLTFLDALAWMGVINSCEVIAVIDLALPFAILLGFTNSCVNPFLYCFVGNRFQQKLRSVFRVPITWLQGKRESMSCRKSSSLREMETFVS
Source text: as §2, §3, §4, §5

Adrenergic beta 1 = molecular target: T7, Adrenergic beta 1 (Homo sapiens, UniProt P08588); assay: Eurofins radioligand binding panel; settings: agonist radioligand
T7 construct: Eurofins
T7 sequence (P08588 whole entry): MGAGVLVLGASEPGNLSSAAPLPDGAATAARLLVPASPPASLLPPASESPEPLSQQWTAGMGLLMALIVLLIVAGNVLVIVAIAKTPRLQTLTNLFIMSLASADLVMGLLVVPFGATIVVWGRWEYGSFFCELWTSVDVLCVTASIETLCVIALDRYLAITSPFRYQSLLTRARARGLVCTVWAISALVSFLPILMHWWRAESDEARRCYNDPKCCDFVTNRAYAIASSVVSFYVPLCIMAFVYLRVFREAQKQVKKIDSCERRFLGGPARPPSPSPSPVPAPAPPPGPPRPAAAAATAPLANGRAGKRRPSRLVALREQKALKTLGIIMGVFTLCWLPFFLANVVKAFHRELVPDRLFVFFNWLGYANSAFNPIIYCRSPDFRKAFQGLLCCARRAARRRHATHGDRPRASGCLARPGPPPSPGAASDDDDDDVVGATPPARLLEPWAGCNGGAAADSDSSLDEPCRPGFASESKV
Source text: as §2, §3, §4, §5

IV dog PK = assay type: in vivo; settings: 0.5 mg/kg IV; for C0: plasma
Protocol: as §1

rats = assay: rat AHL Cmax versus Ctrough study; assay type: in vivo
Protocol: Based on these positive behavioral data and the clear PK/PD relationship tied to achieving free brain levels at, or above, the mGlu1 PAM EC50, we next wanted to define the role of Cmax versus Ctrough drug (19d) concentrations in driving the PK/PD relationship. To accomplish this, pretreatment times and doses were calculated based upon previous PK (see Supporting Information Figure S3)[20] data to target free brain concentrations at and below the in vitro EC50 at the time of amphetamine challenge. Rats were pretreated with 3 mg/kg 19d or vehicle after habituation to the locomotor chambers are described in Figure 9A. Rats pretreated with 19d (10–60 mg/kg) or vehicle were administered compound prior to starting the amphetamine-induced hyperlocomotion experiment as depicted in Figure 9B-D. Ambulations were evaluated for 90 min post amphetamine treatment for all dosing groups. Pretreatment of 19d, chamber habituation, amphetamine treatment and ambulation recording times are outlined for each dosing group in Figure 9. Blood and brain samples were obtained at the end of testing (EOT) to determine 19d levels at the end of the study (Table 6).
The terminal free brain concentrations for this dosing group were 40 nM.
Figure 10 Amphetamine-induced hyperlocomotion in rats. A) 1 h pretreatment of 3 mg/kg 19d. B) 5 h pretreatment of 10 mg/kg 19d. C) 28.5 h pretreatment of 60 mg/kg 19d. Total ambulation from 95 to 180 min. *p < 0.05 compared to Vehicle + Amphetamine treated animals. TEXT PRINTED IN THE PICTURE: (A) 19d: Mean % reversal 27.3% * (3 mg/kg 19d + AMP) | (B) 19d: Mean % reversal 25.1% * (10 mg/kg 19d + AMP) | (C) 19d: Mean % reversal 7.3% (60 mg/kg 19d + AMP) DOUBTS OF THE COPYIST ABOUT THIS PICTURE: 19d, panel A, Mean % reversal: small print, 27.3% could be 27.8% / 19d, panel B, Mean % reversal: small print, 25.1% could be 26.1% / 19d, panel C, Mean % reversal: small print, 7.3% could be 7.8%

[1] = solubility (kinetic, FaSSIF, FaSSGF); assay type: physicochemical
Protocol: Over the course of the mGlu1 PAM program, 19d became an assay standard and was assayed multiple times, affording refined potency values.[20]

rat PO PBL study = assay type: in vivo; settings: 3 mg/kg PO
Source text: Thus, 19d was a stable chemical entity in vivo. […] Overall, the rat PK and CNS penetration was supportive of in vivo work and progression down the development flow-chart.

[2] = plasma protein binding, equilibrium dialysis; assay type: in vitro ADME, human; settings: fraction unbound
Protocol: (§6) The protein binding of each compound was determined in plasma via equilibrium dialysis employing RED Plates (ThermoFisher Scientific, Rochester, NY). Plasma was added to the 96 well plate containing test compound and mixed thoroughly for a final concentration of 5 μM. Subsequently, an aliquot of the plasma-compound mixture was transferred to the cis chamber (red) of the RED plate, with an phosphate buffer (25 mM, pH 7.4) in the trans chamber. The RED plate was sealed and incubated for 4 h at 37 °C with shaking. At completion, aliquots from each chamber were diluted 1:1 with either plasma (cis) or buffer (trans) and transferred to a new 96 well plate, at which time ice-cold acetonitrile containing internal standard (50 ng/mL carbamazepine) (2 volumes) was added to extract the matrices. The plate was centrifuged (3000 rcf, 10 min) and supernatants transferred and diluted 1:1 (supernatant: water) into a new 96 well plate, which was then sealed in preparation for LC/MS/MS analysis. Each compound was assayed in triplicate within the same 96-well plate. Fraction unbound was determined using the following equation [drawing 1]

plasma protein binding = assay type: in vitro ADME
Protocol: as §6

**Q.** With `Cn1nc(-c2ccnn2C)cc1CNC(=O)c1cc(-c2ccco2)ccc1Cl` [Compound 19d, 2-Chloro-N-((1,2′-dimethyl-1H,2’H-[3,3′-bipyrazol]-5-yl)methyl)-5-(furan-2-yl)benzamide] as the compound, how does the “adverse events (AEs) in dog” value (male beagles; 0.5 mg/kg) read?
**A.** Its value is “GI-salivation and rigidity”.

**Q.** What about the “time of AEs postdose” value (male beagles; at Cmax) of the same compound?
**A.** Its value is 1 to 3 min.

**Q.** And the “adverse events (AEs) in dog” value (male beagles; listed as VU6024578/BI02982816, 0.5 mg/kg)?
**A.** The value was “unanticipated AEs”.

**Q.** What about the inhibition at 10 µM (CCK1 (CCKA)) of the same compound?
**A.** The inhibition at 10 µM was 7%.

**Q.** What about the inhibition at 10 µM (CGRP) of the same compound?
**A.** The inhibition at 10 µM was 1%.

**Q.** What about the inhibition at 10 µM (B2) of the same compound?
**A.** Its inhibition at 10 µM is 7%.

**Q.** And the inhibition at 10 µM (CB1)?
**A.** The inhibition at 10 µM was 0%.

**Q.** What about the “% Inhibition at 10 µM” value (BZD (central)) of the same compound?
**A.** The value was 5%.

**Q.** And the inhibition at 10 µM (Adenosine A2A)?
**A.** Its inhibition at 10 µM is -1%.

**Q.** What about the inhibition at 10 µM (AT2) of the same compound?
**A.** Its inhibition at 10 µM is 2%.

**Q.** And the inhibition at 10 µM (Adrenergic beta 1)?
**A.** Its inhibition at 10 µM is 1%.

**Q.** And the CLp (IV dog PK)?
**A.** The CLp was 5.4 mL/min/kg.

**Q.** And the Vss (IV dog PK)?
**A.** The Vss was 0.92 L/kg.

**Q.** And the t1/2 (IV dog PK)?
**A.** The t1/2 was 3.6 h.

**Q.** And the C0 (IV dog PK; read-out: C0 exposure, total)?
**A.** The C0 was 2050 nM.

**Q.** And the C0 (IV dog PK; male, beagle, iv, 0.5 mg/kg, read-out: C0 exposure, unbound)?
**A.** Its C0 is 80 nM.

**Q.** And the “effect on AHL, in words” value (rats; 3 mg/kg, 1 h prior to amphetamine)?
**A.** Its value is “significantly reduced”.

**Q.** What about the “effect on AHL, in words” value (rats; 10 mg/kg, 5 h before amphetamine) of the same compound?
**A.** The value was “significantly reduced”.

**Q.** And the “reduction of locomotor activity after amphetamine, in words” value (rats; 60 mg/kg, 28.5 h before amphetamine)?
**A.** Its value is “not demonstrated”.

**Q.** And the solubility ([1]; FaSSGF, fassgf or other biorelevant, read-out: FaSSGF solubility)?
**A.** Its solubility is 2.5 µM (≈ 0.99 µg/mL).

**Q.** And the solubility ([1]; FaSSIF, read-out: FaSSIF solubility)?
**A.** The solubility was 2.5 µM (≈ 0.99 µg/mL).

**Q.** And the solubility kinetic ([1]; pH 7.4, aqueous buffer, kinetic from dmso stock)?
**A.** Its solubility kinetic is 4.1 µM (≈ 1.62 µg/mL).

**Q.** What about the “unbound brain concentration Br[unbound]” value (rat PO PBL study; at Tmax) of the same compound?
**A.** The value was 100 nM.

**Q.** And the Kp (rat PO PBL study; brain, 15 min to 7 h)?
**A.** The Kp was about 0.5.

**Q.** And the human fuplasma [2]?
**A.** Its human fuplasma is 0.03.

**Q.** And the fraction unbound at 4 h, 5 μM (plasma protein binding; cynomolgus monkey, pH 7.4, read-out: fu (plasma), cyno)?
**A.** Its fraction unbound at 4 h, 5 μM is 0.025.

**Q.** What about the fraction unbound at 4 h, 5 μM (plasma protein binding; dog, pH 7.4, read-out: fu (plasma), dog) of the same compound?
**A.** Its fraction unbound at 4 h, 5 μM is 0.039.

**Q.** And the fraction unbound at 4 h, 5 μM (plasma protein binding; mouse, pH 7.4, read-out: fu (plasma), mouse)?
**A.** The fraction unbound at 4 h, 5 μM was 0.056.
